Measurements as given in PubChem BioAssay (NCI).
Several values for one entry are separate records, joined by “and”; a condition that tells them apart may be missing. Identical values can stand only once.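 These data come from cells grown in 96-well plates and exposed to compound for 48 hours at five concentrations. Abbreviation: GI50, concentration required for 50% inhibition of growth. TGI denotes the concentration required for complete inhibition of growth.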

Columns and labels:
Experiment in all cases: growth of human tumour cells (NCI), 48 h
NCI-H460 lung = test system: NCI-H460 lung
SF-268 CNS = test system: SF-268 CNS
SK-OV-3 ovarian = test system: SK-OV-3 ovarian
MDA-MB-435 = test system: MDA-MB-435
SF-539 CNS = test system: SF-539 CNS
OVCAR-4 ovarian = test system: OVCAR-4 ovarian
RPMI-8226 leukemia = test system: RPMI-8226 leukemia
SNB-75 CNS = test system: SNB-75 CNS

Row | Compound | GI50 (NCI-H460 lung) | TGI (NCI-H460 lung) [µM] | GI50 (SF-268 CNS) | TGI (SF-268 CNS) [µM] | GI50 (SK-OV-3 ovarian) [µM] | TGI (SK-OV-3 ovarian) [µM] | GI50 (MDA-MB-435) | TGI (MDA-MB-435) | GI50 (SF-539 CNS) | TGI (SF-539 CNS) [µM] | GI50 (OVCAR-4 ovarian) [µM] | TGI (OVCAR-4 ovarian) [µM] | GI50 (RPMI-8226 leukemia) | TGI (RPMI-8226 leukemia) | GI50 (SNB-75 CNS) [µM] | TGI (SNB-75 CNS) [µM]
1 | COC[C@H](NC(=O)c1cnc(C)s1)C(=O)N[C@@H](COC)C(=O)N[C@@H](Cc1ccccc1)C(=O)[C@@]1(C)CO1 | 37.1 µM | > 100 | 48.4 µM | > 100 | > 94.9 | > 100 | 12.9 µM | 40 µM | 27.7 µM | > 74.1 | 44.4 | > 100 | 18.5 µM | > 100 µM | 22.3 | > 100
2 | CCC(CC)n1cnc2c(-c3cnc(N)cn3)nc(N3CC4CCC(C3)O4)nc21 | 0.17 µM | > 100 | 0.566 µM | > 100 | 0.142 | 0.789 | 0.314 µM | 4.63 µM | 0.51 µM | 4.19 | 0.169 | 3.17 | 0.102 µM | 5.75 µM | 0.0848 | 1.18
3 | CCOC(=O)C(=Cc1ccc(C#N)cc1)C(=O)OCC | 4.2 µM | 16 | 2.29 µM | 7.57 | 9.86 | 21.5 | 1.98 µM | 4.79 µM | 1.91 µM | 4.15 | 3.44 | 12.6 | 2.65 µM | 7.71 µM | 2.17 | 10.5
4 | NC(=S)N/N=C/c1ccc(OC(=O)COc2cc(Cl)c(Cl)cc2Cl)cn1 | 6.1 µM | > 100 | 3.52 µM | 43.6 | 8.49 | > 100 | 6.68 µM | > 100 µM | 2.37 µM | 10.3 | 4.83 | > 100 | 7.29 µM | > 100 µM |  | 
5 | CC1(C)N=C(N)N=C(N)N1c1ccc(CNC(=O)Nc2ccc(S(=O)(=O)F)c(Cl)c2)c(Cl)c1 | 0.0456 µM | > 100 | 0.686 µM | > 100 | > 45 | > 100 | 0.183 µM | > 100 µM | 1.11 µM | 25 | 4.57 | > 100 | 1.43 µM | > 100 µM | 3.47 | > 100
6 | Cc1ccc(OP(=O)(Oc2ccc(C)cc2)N2C=Cc3ccccc3C2C#N)cc1 (stereo not drawn) |  | > 100 |  | > 100 |  | > 100 |  | > 100 µM |  | > 100 |  | > 100 |  | > 100 µM |  | > 100
7 | O=C(O)c1cccc(S(=O)(=O)NCCO)c1 |  | > 100 |  | > 100 |  | > 100 |  | > 100 µM |  | > 100 |  | > 100 |  | > 100 µM |  | > 100
8 | O=[N+]([O-])c1ccc(-c2csc(N=Nc3c(O)[nH]c4ccccc34)n2)cc1 |  | 22.9 |  |  |  | > 100 |  | > 100 µM |  | 39.3 |  | > 100 |  |  |  | > 100
9 | CC1=C(C#N)C23C(=O)N(c4ccccc4)C(=O)C2=C(O)C=CC3(O)N1Cc1ccc(Cl)cc1Cl (stereo not drawn) | 3.09 µM | 12.3 | 3.74 µM | 16.4 | 11.2 | 23.2 | 1.89 µM | 4.68 µM | 2.11 µM | 4.9 | 6.36 | 19.6 | 1.63 µM | 4.22 µM | 4.09 | 16.7
10 | Cc1ccc(S(=O)(=O)ON2C(=O)c3cccc4cc([N+](=O)[O-])cc(c34)C2=O)cc1 |  | > 100 |  | > 100 |  | > 100 |  | > 100 µM |  |  |  | > 100 |  | > 100 µM |  | > 100
11 | Fc1cccc(COc2ccc(Nc3ncnc4onc(-c5ccccc5)c34)cc2)c1 | 0.0661 µM | > 53.3 | 0.384 µM | > 100 | 0.459 | > 100 |  |  | 0.185 µM | 1.09 | 0.988 | > 100 | 0.0497 µM | > 42 µM | < 0.0162 | 0.155
12 | O=C1c2ccccc2C(=O)N1CCc1ncc(-c2ccccc2)[nH]1 |  | > 100 |  | > 100 |  | > 100 |  |  |  | > 100 |  | > 100 |  |  |  | > 100
13 | O=C(c1c(F)c(F)c(F)c(F)c1F)c1c(F)c(F)c(F)c(F)c1F |  | 5.24 |  | 7.8 |  | 5.57 |  | 3.21 µM |  | 2.69 |  | 3.14 |  | 4.71 µM |  | 3.48
14 | O=C1Nc2c(Cl)cc(Cl)cc2/C1=N/N=C/c1ccco1 |  | > 100 |  |  |  | > 100 |  | > 100 µM |  | > 100 |  | > 100 |  |  |  | 42.7
15 | CC(C)(C)OC(=O)C1C(=O)NC(=O)CC1CC(OCc1ccccc1)C(OCc1ccccc1)C(COCc1ccccc1)OCc1ccccc1 (stereo not drawn) | 32.7 µM and 12.1 µM | > 100 | 46.8 µM and 16.1 µM | > 100 |  |  | 45.1 µM and 9.81 µM | > 100 µM and 66.1 µM | > 100 µM and 36.6 µM | > 100 |  | > 100 | 21.5 µM and 7.16 µM | > 100 µM and 34.1 µM |  | > 100
16 | Cc1cc(OCc2nnc3n2S(=O)(=O)c2ccccc2N3C)ccc1Cl |  | > 100 |  | 68 |  | 37.4 |  | > 100 µM |  | 38.6 |  | 24.2 |  |  |  | 
17 | C=CCC1(C(=O)OC)CCC/C(=N\O)C1 (stereo not drawn) |  |  |  | > 10 |  | > 10 |  | > 10 µM |  | > 10 |  | > 10 |  | > 10 µM |  | > 10
18 | [N-]=[N+]=NCN1C(=O)C2C3C=CC(C2C1=O)C1C2C(=O)N(CN=[N+]=[N-])C(=O)C2C31 (stereo not drawn) |  | > 100 |  | > 100 |  |  |  | > 100 µM |  | > 100 |  |  |  | > 100 µM |  | 
19 | C(=N\Nc1ncc(-c2cc3cc4c(cc3o2)OCO4)s1)/c1ccco1 | 2.59 µM | 10.3 | 2.67 µM | 23.1 |  |  | 2.86 µM | 10.2 µM | 1.58 µM | 3.96 | 1.27 | 12.2 | 3.08 µM | 13.3 µM | 1.86 | 11.4
20 | CC(C)(C)OC(=O)NCC(CNC(=O)OC(C)(C)C)C(N)=O |  | > 100 |  | > 100 |  | > 100 |  | > 100 µM |  | > 100 |  | > 100 |  | > 100 µM |  | 
21 | NC(=O)CC1OC(=O)Cc2cc3c(c(O)c21)C(=O)c1c(O)cccc1C3=O (stereo not drawn) |  | > 100 |  |  |  | > 100 |  | > 100 µM |  | > 100 |  | > 100 |  |  |  | 
